According to PMC7031696 (Cell chemical biology, 2019):
Like-named read-outs stand apart in the source and are kept apart here.

What was measured:
[1] = test system: Plasmodium falciparum 3D7-A10 parasites; assay: Stage specificity assay (8-h exposure of synchronized stages, IC50^8h); assay type: cell-based; conditions: for IC50: Plasmodium falciparum
[2] = test system: asynchronous 3D7-A10 parasite cultures; assay: Standard 72-h exposure asexual blood stage susceptibility assay (IC50^72h); assay type: cell-based, Plasmodium falciparum; conditions: Plasmodium falciparum, 3D7, 72 h, read-out: Overall (72hr assay) Mean IC50 (IC50^72h)
[3] = test system: 3D7-MR4 trophozoite parasite-infected RBCs; assay: Metabolomic profiling (hydrophilic metabolite changes, UHPLC-MS); assay type: cell-based, Plasmodium falciparum
[4] = test system: 3D7-A10 or Dd2-B2 parasites; assay: Resistance selections (single step, pulsing or ramping); assay type: cell-based, Plasmodium falciparum
[5] = 10 × IC50^72h, 2.5 hr, trophozoites

CCCOCc1cc(CN2CCN(c3cccc(Cl)c3)CC2)c(O)c2ncccc12 [MMV000787]
Ratio lowest IC50 8hr/IC50 72hr ([1]; 3D7-A10): 0.7
killing in stage specificity assay ([1]; 8-h exposures, survival curves): incomplete killing
IC50 ([1]; 3D7, 8 h, read-out: IC50^8h values at all tested stages, 8-h exposures, all asexual blood stages): > 1 µM
IC50 ([1]; 3D7, read-out: Early rings Mean IC50 (IC50^8h), 8-h exposure 0–8 hr, 3D7-A10, survival at 60 h): 5.74 µM
IC50 ([1]; 3D7, read-out: Early trophozoites Mean IC50 (IC50^8h), 8-h exposure 16–24 hr, 3D7-A10, survival at 60 h): 3.31 µM
IC50 ([1]; 3D7, read-out: Late rings Mean IC50 (IC50^8h), 8-h exposure 8–16 hr, 3D7-A10, survival at 60 h): 7.87 µM
IC50 ([1]; 3D7, read-out: Late trophozoites Mean IC50 (IC50^8h), 8-h exposure 24–32 hr, 3D7-A10, survival at 60 h): 1.35 µM
IC50 ([1]; 3D7, read-out: Schizonts Mean IC50 (IC50^8h), 8-h exposure 32–40 hr, 3D7-A10, survival at 60 h): 5.91 µM
Stage of peak activity (Figure 6) ([1]; period when the parasite was most susceptible (lowest IC50^8h)): late trophozoites
Peak Activity (Table S1) ([1]; stage(s) with the lowest IC50^8h): Late Trophs
IC50 [2]: 1960 nM
metabolic signature: increases in the pyrimidine precursors dihydroorotate and N-carbamoyl-L-aspartate (mETC disruption) [3, 5]: observed
orotidine 5-P levels [3, 5]: decreased
Log2(fold changes) 3-phosphoglycerate ([3]; metabolite 3-phosphoglycerate, log2 fold change): -0.5371
Log2(fold changes) 4-Pyridoxic acid ([3]; metabolite 4-Pyridoxic acid, log2 fold change): -0.4654
Log2(fold changes) 4-aminobutyrate ([3]; metabolite 4-aminobutyrate, log2 fold change): 0.0414
Log2(fold changes) 4-phosphopantetheine ([3]; metabolite 4-phosphopantetheine, log2 fold change): 0.0000
Log2(fold changes) 4-phosphopantothenate ([3]; metabolite 4-phosphopantothenate, log2 fold change): -0.5845
Log2(fold changes) 5-aminopentanoic acid ([3]; metabolite 5-aminopentanoic acid, log2 fold change): 0.0000
Log2(fold changes) 5-methyl-THF ([3]; metabolite 5-methyl-THF, log2 fold change): 0.0000
Log2(fold changes) 5-phosphoribosyl-1-pyrophosphate ([3]; metabolite 5-phosphoribosyl-1-pyrophosphate, log2 fold change): 0.0000
Log2(fold changes) 6-phospho-D-gluconate ([3]; metabolite 6-phospho-D-gluconate, log2 fold change): -0.3590
Log2(fold change) HVDD ([3]; metabolite HVDD): -0.3092
Log2(fold change) Hydroxyisocaproic acid ([3]; metabolite Hydroxyisocaproic acid): 0.0000
Log2(fold change) IDP ([3]; metabolite IDP): 0.0000
Log2(fold change) IMP ([3]; metabolite IMP): -0.1140
Log2(fold change) Inositol ([3]; metabolite Inositol): 0.0000
Log2(fold change) Isopentyl-PP ([3]; metabolite Isopentyl-PP): -1.2940
Log2(fold change) L-arginino-succinate ([3]; metabolite L-arginino-succinate): 0.4157
Log2(fold change) LD ([3]; metabolite LD): 0.2463
Log2(fold change) Myristoyl/tetradecanoyl-CoA ([3]; metabolite Myristoyl/tetradecanoyl-CoA): 0.0000
Log2(fold change) N-Acetyl-L-alanine ([3]; metabolite N-Acetyl-L-alanine): -0.3215
Log2(fold change) N-acetyl-L-ornithine ([3]; metabolite N-acetyl-L-ornithine): -0.0825
Log2(fold change) N-acetyl-glucosamine-1/6-phosphate ([3]; metabolite N-acetyl-glucosamine-1/6-phosphate): -0.1305
Log2(fold change) N-acetyl-glutamate ([3]; metabolite N-acetyl-glutamate): -0.2597
Log2(fold change) N-acetyl-glutamine ([3]; metabolite N-acetyl-glutamine): -0.3137
Log2(fold change) N-carbamoyl-L-aspartate ([3]; metabolite N-carbamoyl-L-aspartate): 1.8530
Log2(fold change) NAD+ ([3]; metabolite NAD+): -0.4850
Log2(fold change) NADH ([3]; metabolite NADH): 0.6916
Log2(fold change) NADP+ ([3]; metabolite NADP+): -0.1054
Log2(fold change) NADPH ([3]; metabolite NADPH): 0.8357
Log2(fold change) O-acetyl-L-serine ([3]; metabolite O-acetyl-L-serine): 0.0023
Log2(fold change) Octoluse 8/1P ([3]; metabolite Octoluse 8/1P): -0.4530
Log2(fold change) Octoluse Bisphosphate ([3]; metabolite Octoluse Bisphosphate): -0.4981
Log2(fold change) PD ([3]; metabolite PD): 0.8974
Log2(fold change) PE ([3]; metabolite PE): 0.4326
Log2(fold change) PEE ([3]; metabolite PEE): -0.3726
Log2(fold change) PEEK ([3]; metabolite PEEK): 0.6684
Log2(fold change) PVNF ([3]; metabolite PVNF): -0.7950
Log2(fold change) Pyroglutamic acid ([3]; metabolite Pyroglutamic acid): -0.5088
Log2(fold change) Pyrophosphate ([3]; metabolite Pyrophosphate): 0.0000
Log2(fold change) Ribose-5-phosphate ([3]; metabolite Ribose-5-phosphate): -0.4878
Log2(fold change) S-adenosyl-L-homocysteine ([3]; metabolite S-adenosyl-L-homocysteine): -0.1665
Log2(fold change) S-adenosyl-L-methioninamine ([3]; metabolite S-adenosyl-L-methioninamine): 1.4172
Log2(fold change) S-adenosyl-L-methionine ([3]; metabolite S-adenosyl-L-methionine): 0.0000
Log2(fold change) S-methyl-5'-thioadenosine ([3]; metabolite S-methyl-5'-thioadenosine): 0.1323
Log2(fold change) SD ([3]; metabolite SD): 0.5833
Log2(fold change) SDL ([3]; metabolite SDL): 0.0000
Log2(fold change) SID ([3]; metabolite SID): 0.2266
Log2(fold change) Sedoheptulose bisphosphate ([3]; metabolite Sedoheptulose bisphosphate): -0.5430
Log2(fold change) Thiamine pyrophosphate ([3]; metabolite Thiamine pyrophosphate): -0.2018
Log2(fold changes) UDP-D-glucose ([3]; metabolite UDP-D-glucose, log2 fold change): -0.1946
Log2(fold changes) UDP-D-glucuronate ([3]; metabolite UDP-D-glucuronate, log2 fold change): -0.2169
Log2(fold changes) UDP-N-acetyl-glucosamine ([3]; metabolite UDP-N-acetyl-glucosamine, log2 fold change): -0.3874
Log2(fold changes) UDP ([3]; metabolite UDP, log2 fold change): -0.9589
Log2(fold changes) UMP ([3]; metabolite UMP, log2 fold change): -0.1735
Log2(fold changes) UTP ([3]; metabolite UTP, log2 fold change): 0.0000
Log2(fold change) hydroxyphenylpyruvate ([3]; metabolite hydroxyphenylpyruvate): 0.0000
Log2(fold change) hydroxyproline/Aminolevulinate ([3]; metabolite hydroxyproline/Aminolevulinate): -0.3494
Log2(fold change) hypoxanthine ([3]; metabolite hypoxanthine): -0.2301
Log2(fold change) indole ([3]; metabolite indole): 0.0000
Log2(fold change) inosine ([3]; metabolite inosine): -0.0358
Log2(fold change) isoleucine ([3]; metabolite isoleucine): 0.0000
Log2(fold change) lactate ([3]; metabolite lactate): -0.6338
Log2(fold change) leucine ([3]; metabolite leucine): 0.0000
Log2(fold change) lysine ([3]; metabolite lysine): -0.1255
Log2(fold change) malate ([3]; metabolite malate): 0.0012
Log2(fold change) maleic acid ([3]; metabolite maleic acid): 0.0284
Log2(fold change) methionine ([3]; metabolite methionine): -0.0998
Log2(fold change) myo-inositol ([3]; metabolite myo-inositol): -0.7776
Log2(fold change) nicotinamide mononucleotide ([3]; metabolite nicotinamide mononucleotide): -0.2457
Log2(fold change) nicotinate ([3]; metabolite nicotinate): -0.3114
Log2(fold change) ornithine ([3]; metabolite ornithine): 0.0122
Log2(fold change) orotate ([3]; metabolite orotate): 0.0632
Log2(fold change) orotidine-5'-phosphate ([3]; metabolite orotidine-5'-phosphate): -0.3294
Log2(fold change) oxaloacetate ([3]; metabolite oxaloacetate): -0.6486
Log2(fold change) p-aminobenzoate ([3]; metabolite p-aminobenzoate): 0.0000
Log2(fold change) p-hydroxybenzoate ([3]; metabolite p-hydroxybenzoate): 0.0000
Log2(fold change) pantothenate ([3]; metabolite pantothenate): -0.1388
Log2(fold change) phenylalanine ([3]; metabolite phenylalanine): -0.3732
Log2(fold change) phenylpyruvate ([3]; metabolite phenylpyruvate): 0.0000
Log2(fold change) phosphoenolpyruvate ([3]; metabolite phosphoenolpyruvate): -0.1822
Log2(fold change) prephenate ([3]; metabolite prephenate): 0.5798
Log2(fold change) proline ([3]; metabolite proline): -0.4229
Log2(fold change) pyridoxine ([3]; metabolite pyridoxine): -0.3069
Log2(fold change) pyruvate ([3]; metabolite pyruvate): -1.0960
Log2(fold change) riboflavin ([3]; metabolite riboflavin): -0.1793
Log2(fold change) ribose ([3]; metabolite ribose): -0.0760
Log2(fold change) ribose-phosphate ([3]; metabolite ribose-phosphate): -0.9121
Log2(fold change) ribulose-5-phosphate ([3]; metabolite ribulose-5-phosphate): -0.5577
Log2(fold change) serine ([3]; metabolite serine): -0.1539
Log2(fold change) sn-glycerol-3-phosphate ([3]; metabolite sn-glycerol-3-phosphate): 0.0054
Log2(fold change) succinate/Methylmalonic acid ([3]; metabolite succinate/Methylmalonic acid): -0.5977
Log2(fold change) succinyl-CoA/methylmalonyl-CoA ([3]; metabolite succinyl-CoA/methylmalonyl-CoA): 0.0000
Log2(fold change) taurine ([3]; metabolite taurine): -0.2559
Log2(fold change) thiamine ([3]; metabolite thiamine): -0.2060
Log2(fold change) threonine/homoserine ([3]; metabolite threonine/homoserine): -0.2606
Log2(fold change) thymidine ([3]; metabolite thymidine): 0.0000
Log2(fold changes) thymine ([3]; metabolite thymine, log2 fold change): 0.0000
Log2(fold changes) trehalose-6-Phosphate ([3]; metabolite trehalose-6-Phosphate, log2 fold change): 0.0000
Log2(fold changes) tryptophan ([3]; metabolite tryptophan, log2 fold change): -0.8402
Log2(fold changes) tyrosine ([3]; metabolite tyrosine, log2 fold change): -0.1716
Log2(fold changes) uridine ([3]; metabolite uridine, log2 fold change): 0.0000
outcome of resistance selections (continuous exposure or pulsing) ([4]; 5 × 10^8 to 1 × 10^9 3D7-A10 or Dd2-B2 parasites, 3–6 × IC50^72h): did not result in MMV000787-resistant parasites
minimum inocula of resistance ([4]; from failed selections in 3D7-A10 / Dd2-B2): above 5 × 10^8 parasites
